This is an account of results in patent publication US8541588B2, “Sulfonamide derivatives” (Pfizer Limited, priority 2009, dated 2013).

By IC50 is commonly meant the midpoint of a concentration-inhibition curve.

T1 sequence (Q15858 whole entry): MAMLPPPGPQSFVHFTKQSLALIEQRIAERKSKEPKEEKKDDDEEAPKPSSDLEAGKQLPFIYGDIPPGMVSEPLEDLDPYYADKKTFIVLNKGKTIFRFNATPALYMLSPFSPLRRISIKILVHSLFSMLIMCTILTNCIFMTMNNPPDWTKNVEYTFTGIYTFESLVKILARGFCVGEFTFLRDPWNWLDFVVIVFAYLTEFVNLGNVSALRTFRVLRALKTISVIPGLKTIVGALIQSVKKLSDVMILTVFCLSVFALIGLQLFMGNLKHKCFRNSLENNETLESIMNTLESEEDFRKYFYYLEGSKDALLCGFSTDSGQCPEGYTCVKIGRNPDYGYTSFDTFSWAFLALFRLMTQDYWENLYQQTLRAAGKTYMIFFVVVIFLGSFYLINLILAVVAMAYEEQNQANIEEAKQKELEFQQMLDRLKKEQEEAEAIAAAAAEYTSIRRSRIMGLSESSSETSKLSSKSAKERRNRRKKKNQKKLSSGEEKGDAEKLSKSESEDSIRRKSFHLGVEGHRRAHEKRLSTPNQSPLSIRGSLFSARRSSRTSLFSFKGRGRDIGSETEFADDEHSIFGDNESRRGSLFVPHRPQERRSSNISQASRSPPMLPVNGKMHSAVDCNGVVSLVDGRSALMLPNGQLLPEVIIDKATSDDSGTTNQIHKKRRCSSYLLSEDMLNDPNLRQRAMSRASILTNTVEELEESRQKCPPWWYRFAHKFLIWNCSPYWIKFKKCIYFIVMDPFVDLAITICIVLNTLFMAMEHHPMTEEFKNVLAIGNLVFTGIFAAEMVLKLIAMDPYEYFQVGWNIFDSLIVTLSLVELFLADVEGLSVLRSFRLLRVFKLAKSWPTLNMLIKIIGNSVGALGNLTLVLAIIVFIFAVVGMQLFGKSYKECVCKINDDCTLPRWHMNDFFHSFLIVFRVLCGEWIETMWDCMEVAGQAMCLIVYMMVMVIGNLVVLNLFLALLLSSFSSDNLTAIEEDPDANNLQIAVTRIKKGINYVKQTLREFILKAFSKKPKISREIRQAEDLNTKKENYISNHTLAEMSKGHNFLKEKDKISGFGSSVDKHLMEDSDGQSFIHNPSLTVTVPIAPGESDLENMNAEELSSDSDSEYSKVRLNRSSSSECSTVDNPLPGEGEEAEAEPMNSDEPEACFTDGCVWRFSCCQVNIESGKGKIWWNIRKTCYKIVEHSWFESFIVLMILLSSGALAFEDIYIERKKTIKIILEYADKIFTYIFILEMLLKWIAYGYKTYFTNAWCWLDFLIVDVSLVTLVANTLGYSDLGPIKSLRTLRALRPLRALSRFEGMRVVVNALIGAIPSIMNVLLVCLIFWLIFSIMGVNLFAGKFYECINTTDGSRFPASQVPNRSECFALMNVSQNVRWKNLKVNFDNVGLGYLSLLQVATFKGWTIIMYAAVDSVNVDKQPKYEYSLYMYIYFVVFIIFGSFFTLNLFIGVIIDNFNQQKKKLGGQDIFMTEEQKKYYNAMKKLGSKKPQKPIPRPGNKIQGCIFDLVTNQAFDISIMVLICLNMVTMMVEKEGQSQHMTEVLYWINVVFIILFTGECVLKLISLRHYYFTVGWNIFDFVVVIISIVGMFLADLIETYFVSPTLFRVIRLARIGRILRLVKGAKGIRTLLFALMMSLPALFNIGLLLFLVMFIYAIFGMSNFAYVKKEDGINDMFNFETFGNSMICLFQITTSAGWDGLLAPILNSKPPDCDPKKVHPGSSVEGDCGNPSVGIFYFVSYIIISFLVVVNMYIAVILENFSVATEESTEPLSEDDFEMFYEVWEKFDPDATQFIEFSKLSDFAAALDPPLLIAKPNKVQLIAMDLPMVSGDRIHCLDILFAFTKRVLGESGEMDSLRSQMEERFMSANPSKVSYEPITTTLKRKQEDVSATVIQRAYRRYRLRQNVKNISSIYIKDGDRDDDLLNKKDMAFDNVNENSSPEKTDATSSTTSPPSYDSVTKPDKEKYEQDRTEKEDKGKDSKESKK

The first test addresses T1, Nav1.7 (or SCN9A) channel; HEK cells stably transfected with hSCN9A (Homo sapiens, UniProt Q15858).
T1 construct: expressed in transfected cells
In words: Nav1.7 block, PatchXpress 7000 automated whole-cell voltage clamp, estimated IC50 (EIC50). Particulars: PatchXpress platform; hSCN9A HEK cells held at V1/2 of inactivation; estimated IC50. The format is cell-based.
For `N#Cc1cc(S(=O)(=O)Nc2ncns2)ccc1Oc1cc(C(F)(F)F)nn1Cc1ccccc1` [Example 80, 4-{[1-benzyl-3-(trifluoromethyl)-1H-pyrazol-5-yl]oxy}-3-cyano-N-1,2,4-thiadiazol-5-ylbenzenesulfonamide], the IC50 is greater than 300 nM. Still for that read-out and setting: then `N#Cc1cc(S(=O)(=O)Nc2nccs2)ccc1Oc1ccc(-c2ccccc2)cc1` [Example 187, 4-(biphenyl-4-yloxy)-3-cyano-N-thiazol-2-yl-benzenesulfonamide], with 1670 nM; and `Cc1nc(-c2ccccc2Oc2ccc(S(=O)(=O)Nc3nccs3)cc2C#N)cs1` [Example 166, 3-cyano-4-(2-(2-methylthiazol-4-yl)phenoxy)-N-(thiazol-2-yl)benzenesulfonamide], with 1810 nM; and `O=S(=O)(Nc1nccs1)c1ccc(Oc2ccc(F)cc2-c2ccn[nH]2)cc1F` [Example 213, 2-fluoro-4-(4-fluoro-2-(1H-pyrazol-5-yl)phenoxy)-N-(thiazol-2-yl)benzenesulfonamide], with 1600 nM. Consider `Cc1cc(C)n(-c2ccc(Oc3ccc(S(=O)(=O)Nc4nccs4)cc3F)cc2)n1` [Example 248, 4-[4-(3,5-dimethyl-pyrazol-1-yl)-phenoxy]-3-fluoro-N-thiazol-2-yl-benzenesulfonamide], for which the half-inhibitory concentration (IC50) is 2780 nM. Still for that read-out and setting: then `N#Cc1cc(S(=O)(=O)Nc2ncns2)ccc1Oc1cccc(F)c1-c1ccn[nH]1` [Example 89, 3-cyano-4-[3-fluoro-2-(2H-pyrazol-3-yl)-phenoxy]-N-[1,2,4]thiadiazol-5-yl-benzenesulfonamide], with 680 nM; and `O=S(=O)(Nc1cscn1)c1ccc(Oc2cc(C(F)(F)F)nn2-c2ccccc2)c(F)c1` [Example 274, 3-fluoro-4-(2-phenyl-5-trifluoromethyl-2H-pyrazol-3-yloxy)-N-thiazol-4-yl-benzenesulfonamide], with greater than 10000 nM; and `N#Cc1cc(S(=O)(=O)Nc2ccccc2)ccc1Oc1ccccc1-c1ccccc1` [Example 114, 4-(biphenyl-2-yloxy)-3-cyano-N-phenylbenzenesulfonamide], with greater than 10000 nM. On to `N#Cc1cc(S(=O)(=O)Nc2nccs2)ccc1Oc1ccc(F)cc1-c1cccc(CCO)c1` [Example 153, 3-cyano-4-{[5-fluoro-3′-(2-hydroxyethyl)biphenyl-2-yl]oxy}-N-1,3-thiazol-2-ylbenzenesulfonamide], for which the IC50 was 60 nM. Regarding `O=S(=O)(Nc1ncns1)c1ccc(Oc2ccc(-c3ccccc3)cc2)c(Cl)c1` [Example 149, 4-(biphenyl-4-yloxy)-3-chloro-N-1,2,4-thiadiazol-5-ylbenzenesulfonamide], the IC50 was 920 nM. With `N#Cc1cc(S(=O)(=O)Nc2nccs2)ccc1Oc1ccccc1-c1nncn1-c1ccccc1` [Example 181, 3-cyano-4-(2-(4-phenyl-4H-1,2,4-triazol-3-yl)phenoxy)-N-(thiazol-2-yl)benzenesulfonamide], the IC50 is greater than 10000 nM. The same measure, in the same setting: then `N#Cc1cc(S(=O)(=O)Nc2ncns2)ccc1Oc1cc(F)ccc1Oc1ccccc1` [Example 74, 3-cyano-4-(5-fluoro-2-phenoxyphenoxy)-N-1,2,4-thiadiazol-5-ylbenzenesulfonamide], with 1110 nM. Regarding `N#Cc1cc(S(=O)(=O)Nc2nccs2)ccc1Oc1ccc(-c2cc(C(F)(F)F)n[nH]2)cc1` [Example 202, 3-cyano-N-thiazol-2-yl-4-[4-(5-trifluoromethyl-2H-pyrazol-3-yl)-phenoxy]-benzenesulfonamide], the half-maximal inhibitory concentration (IC50) was 600 nM.

The test is the same for the next values; noted with them: estimated IC50; hSCN9A HEK cells, PatchXpress platform; Examples 283-814.
For the compound `Cc1cc(S(=O)(=O)Nc2cscn2)ccc1Oc1ccccc1-c1ccnn1C` [Example 628, 3-methyl-4-[2-(1-methyl-1H-pyrazol-5-yl)phenoxy]-N-1,3-thiazol-4-ylbenzenesulfonamide], the 50% inhibitory concentration (IC50) was 1000 nM. As for `N#Cc1cc(S(=O)(=O)Nc2cscn2)ccc1Oc1ccc(Cl)cc1-c1cnn(C(F)F)c1` [Example 394, 4-{4-chloro-2-[1-(difluoromethyl)-1H-pyrazol-4-yl]phenoxy}-3-cyano-N-1,3-thiazol-4-ylbenzenesulfonamide], the IC50 is 2900 nM. For `CCn1nc(C(F)(F)F)cc1-c1ccc(Oc2ccc(S(=O)(=O)Nc3nccs3)cc2C#N)cc1F` [Example 327, 3-cyano-4-{4-[1-ethyl-3-(trifluoromethyl)-1H-pyrazol-5-yl]-3-fluorophenoxy}-N-1,3-thiazol-2-ylbenzenesulfonamide], the half-inhibitory concentration (IC50) is 370 nM.

As to `N#Cc1cc(S(=O)(=O)Nc2ncns2)ccc1Oc1ccc(OC(F)(F)F)cc1-c1cn[nH]c1` [Example 502, 3-cyano-4-[2-(1H-pyrazol-4-yl)-4-(trifluoromethoxy)phenoxy]-N-1,2,4-thiadiazol-5-ylbenzenesulfonamide], the 50% inhibitory concentration (IC50) is 22 nM. Turning to `Cn1ncnc1-c1cc(Cl)ccc1Oc1ccc(S(=O)(=O)Nc2nccs2)cc1C#N` [Example 326, 4-[4-chloro-2-(1-methyl-1H-1,2,4-triazol-5-yl)phenoxy]-3-cyano-N-1,3-thiazol-2-ylbenzenesulfonamide], the 50% inhibitory concentration (IC50) is 2100 nM.

Take `N#Cc1cc(S(=O)(=O)Nc2cscn2)ccc1Oc1ccc(Cl)c(Cn2ccnc2)c1` [Example 418, 4-[4-chloro-3-(1H-imidazol-1-ylmethyl)phenoxy]-3-cyano-N-1,3-thiazol-4-ylbenzenesulfonamide]: the half-inhibitory concentration (IC50) is 2300 nM. As for `N#Cc1cc(S(=O)(=O)Nc2ccc(F)cn2)ccc1Oc1ccc(C(F)(F)F)cc1-c1cn[nH]c1` [Example 315, 3-cyano-N-(5-fluoropyridin-2-yl)-4-[2-(1H-pyrazol-4-yl)-4-(trifluoromethyl)phenoxy]benzenesulfonamide], the 50% inhibitory concentration (IC50) was 1200 nM.

`Cc1ncsc1-c1cc(Cl)ccc1Oc1ccc(S(=O)(=O)Nc2nccs2)cc1C#N` [Example 698, 4-[4-chloro-2-(4-methyl-1,3-thiazol-5-yl)phenoxy]-3-cyano-N-1,3-thiazol-2-ylbenzenesulfonamide]: the concentration for half-maximal inhibition (IC50) is 96 nM.

As for `N#Cc1cc(S(=O)(=O)Nc2ncc(F)s2)ccc1Oc1ccc(Cl)c(Cn2cccn2)c1` [Example 534, 4-[4-chloro-3-(1H-pyrazol-1-ylmethyl)phenoxy]-3-cyano-N-(5-fluoro-1,3-thiazol-2-yl)benzenesulfonamide], the half-inhibitory concentration (IC50) was 500 nM. Same read-out and setting: then `Cn1nccc1-c1cc(Cl)ccc1Oc1ccc(S(=O)(=O)Nc2ccncn2)cc1C#N` [Example 361, 4-[4-chloro-2-(1-methyl-1H-pyrazol-5-yl)phenoxy]-3-cyano-N-pyrimidin-4-ylbenzenesulfonamide], with 480 nM; and `Nc1[nH]ncc1-c1cc(Cl)ccc1Oc1cc(F)c(S(=O)(=O)Nc2ncns2)cc1Cl` [Example 794, 4-[2-(5-amino-1H-pyrazol-4-yl)-4-chlorophenoxy]-5-chloro-2-fluoro-N-1,2,4-thiadiazol-5-ylbenzenesulfonamide], with 4.8 nM. Consider `Cn1nccc1-c1ccc(Cl)cc1Oc1ccc(S(=O)(=O)Nc2nccs2)cc1C#N` [Example 544, 4-[5-chloro-2-(1-methyl-1H-pyrazol-5-yl)phenoxy]-3-cyano-N-1,3-thiazol-2-ylbenzenesulfonamide], for which the IC50 is 22 nM. Same read-out and setting: in the case of `N#Cc1cc(S(=O)(=O)Nc2ccc(F)cn2)ccc1Oc1ccccc1-c1ccccc1` [Example 366, 4-(biphenyl-2-yloxy)-3-cyano-N-(5-fluoropyridin-2-yl)benzenesulfonamide] it was 4800 nM. The same measure, in the same setting: then `Cc1nc(NS(=O)(=O)c2ccc(Oc3ccccc3-c3ccccc3)c(C#N)c2)sc1F` [Example 712, 4-(biphenyl-2-yloxy)-3-cyano-N-(5-fluoro-4-methyl-1,3-thiazol-2-yl)benzenesulfonamide], with 1200 nM; and `Cn1nccc1-c1cc(Br)ccc1Oc1ccc(S(=O)(=O)Nc2nccs2)cc1C#N` [Example 705, 4-[4-bromo-2-(1-methyl-1H-pyrazol-5-yl)phenoxy]-3-cyano-N-1,3-thiazol-2-ylbenzenesulfonamide], with 15 nM; and `Nc1cc(-c2cc(Cl)ccc2Oc2cc(F)c(S(=O)(=O)Nc3ncns3)cc2F)ccn1` [Example 787, 4-[2-(2-aminopyridin-4-yl)-4-chlorophenoxy]-2,5-difluoro-N-1,2,4-thiadiazol-5-ylbenzenesulfonamide], with 7.2 nM.

Still in this test, the particulars now being: estimated IC50; hSCN9A HEK cells, PatchXpress platform; Examples 815-1040.
Consider `O=S(=O)(Nc1ncns1)c1cc(Cl)c(Oc2ccc(OC(F)(F)F)cc2-c2ccnnc2)cc1F` [Example 909, 5-chloro-2-fluoro-4-[2-pyridazin-4-yl-4-(trifluoromethoxy)phenoxy]-N-1,2,4-thiadiazol-5-ylbenzenesulfonamide], for which the half-inhibitory concentration (IC50) was 2.1 nM. As for `N#Cc1cnn(-c2ccc(Oc3ccc(S(=O)(=O)Nc4nccs4)cc3C#N)cc2)c1` [Example 994, 3-cyano-4-[4-(4-cyano-1H-pyrazol-1-yl)phenoxy]-N-1,3-thiazol-2-ylbenzenesulfonamide], the IC50 is 9500 nM.

For the compound `Cn1nccc1-c1cc(Cl)ccc1Oc1ccc(S(=O)(=O)Nc2cnccn2)cc1C#N` [Example 885, 4-[4-chloro-2-(1-methyl-1H-pyrazol-5-yl)phenoxy]-3-cyano-N-pyrazin-2-ylbenzenesulfonamide], the half-maximal inhibitory concentration (IC50) is 6300 nM. Still for that read-out and setting: then `O=C(c1cccc(-c2cc(Cl)ccc2Oc2cc(F)c(S(=O)(=O)Nc3ncns3)cc2Cl)n1)N1CCC1` [Example 859, 4-{2-[6-(azetidin-1-ylcarbonyl)pyridin-2-yl]-4-chlorophenoxy}-5-chloro-2-fluoro-N-1,2,4-thiadiazol-5-ylbenzenesulfonamide], with 4.4 nM. For `N#Cc1cc(S(=O)(=O)Nc2ncns2)ccc1Oc1ccc(Cl)cc1-c1cc(N2CCOCC2)ncn1` [Example 896, 4-[4-chloro-2-(6-morpholin-4-ylpyrimidin-4-yl)phenoxy]-3-cyano-N-1,2,4-thiadiazol-5-ylbenzenesulfonamide], the concentration for half-maximal inhibition (IC50) is 340 nM. On to `O=S(=O)(Nc1ncns1)c1ccc(Oc2cc(Cl)c(F)cc2-c2ccnnc2)c(F)c1` [Example 934, 4-(5-chloro-4-fluoro-2-pyridazin-4-ylphenoxy)-3-fluoro-N-1,2,4-thiadiazol-5-ylbenzenesulfonamide], for which the half-inhibitory concentration (IC50) was 53 nM.
